The nature of data set [1]: Transport studies across Caco-2 monolayers (P app, efflux ratio). In kind it is in vitro ADME. The note with it: human; for Papp A→B at 120 min, 500 μM / Papp B→A at 120 min, 500 μM: Caco-2 Model, 500 μM compound; for Papp A→B at 120 min, 500 μM: read-out: P app (apical to basolateral); for Papp B→A at 120 min, 500 μM: read-out: P app (basolateral to apical). The procedure: Medium was replaced every 2-3 days. […] The vinblastine-selected Caco-2 cells were cultivated in the presence of 10 nM vinblastine to induce P-glycoprotein (P-gp) expression. […] Prior to the transport study, cytotoxicity of NGR1, GRg1, GRe, and Borneol toward Caco-2 cells was determined using MTT assays.
In transport studies, vinblastine-selected Caco-2 cells were seeded on polycarbonate filter of transwells for 18–21 days before starting transport study, and the monolayers with the transepithelial electrical resistance (TEER) values greater than 300 Ωcm^2 were used. Caco-2 monolayers were rinsed twice with Hanks' balanced salt solution (HBSS) and preincubated in HBSS at 37°C for 30 min before starting experiments. To start the experiments, 500 μM of NGR1, GRg1, and GRe in final concentrations were added to the donor side with or without 200 μM Borneol and then incubated at 37°C. […] After each sampling, 0.1 mL of HBSS was added to the receiver chamber to maintain a constant volume. All the experiments were performed five times in duplicate. The collected samples were stored at −20°C until HPLC analysis. During the above transport studies, the TEER values were also monitored before and at the end of each experiment. Apparent permeability coefficients (P app) were then calculated according to the following equation: (1) Papp=(dC/dt×V)/(A×C0), where dC/dt is the rate of the test compound appearing in the receiver chamber, V is the volume of the solution in the receiver chamber, A is the cell monolayer surface area, and C 0 is the initial concentration of the test compound added in the donor chamber.
The efflux ratio (Er) was calculated using the following equation: (2) Er=Papp(basolateral-apical)/Papp(apical-basolateral).
(In general: Passage across Caco-2 layers is used to estimate intestinal permeability.)

Data set [2] in a line: Stability in plasma samples and tissue homogenates of rabbits. In kind it is physicochemical. The procedure: The precision of the assay was determined for the quality control (QC) plasma and tissue […] Intraday precision and accuracy were determined via repeated analysis of the QC plasma and tissue samples within one day (n = 5). Interday precision and accuracy were determined via repeated analysis on five consecutive days. The concentration of each sample was determined using the prepared calibration curve and analyzed on the same day. All stabilities were evaluated at different concentration levels. Short-term stability of NGR1, GRg1, and GRe were assessed by analyzing QC samples kept at 4°C for 4–24 h. Freeze-thaw stability was evaluated at three consecutive freeze-thaw cycles. Long-term stability was studied by analyzing samples during a period of 8 weeks of storage at −70°C.
The stability studies were performed by evaluating small variations in three different conditions.

[3] abbreviates: Caco-2, Caco-2 monolayers, read-out: efflux ratios (Er).
Where [4] appears, read: Caco-2, efflux ratio P app(basolateral-apical)/P app(apical-basolateral), with or without 200 μM Borneol (see label), read-out: E r.
Setting [5] is: with or without 200 μM Borneol (see label).

Read-outs that look alike come from different tables or passages of the source.

Take `CC(C)=CCC[C@](C)(O[C@@H]1O[C@H](CO)[C@@H](O)[C@H](O)[C@H]1O)[C@H]1CC[C@]2(C)[C@@H]1[C@H](O)C[C@@H]1[C@@]3(C)CC[C@H](O)C(C)(C)[C@@H]3[C@@H](O[C@@H]3O[C@H](CO)[C@@H](O)[C@H](O)[C@H]3O[C@@H]3O[C@@H](C)[C@H](O)[C@@H](O)[C@H]3O)C[C@]12C` [GRe, ginsenoside Re]: the efflux ratio at 120 min, 500 μM in data set [1] (setting [3]) was 1 to 1.1; in data set [1] (setting [4]), 1.05. The Papp A→B at 120 min, 500 μM in data set [1] (setting [5]) is 0.546 ± 0.04 ×10⁻⁶ cm/s. The Papp B→A at 120 min, 500 μM in data set [1] (setting [5]) was 0.573 ± 0.037 ×10⁻⁶ cm/s.

For the compound `CC(C)=CCC[C@](C)(O[C@@H]1O[C@H](CO)[C@@H](O)[C@H](O)[C@H]1O)[C@H]1CC[C@]2(C)[C@@H]1[C@H](O)C[C@@H]1[C@@]3(C)CC[C@H](O)C(C)(C)[C@@H]3[C@@H](O[C@@H]3O[C@H](CO)[C@@H](O)[C@H](O)[C@H]3O)C[C@]12C` [GRg1, ginsenoside Rg1], the “Remaining, Short-term stability” value in data set [2] (kidney homogenate, QC 0.4 μg·mL^−1, 4°C for 4–24 h) is given as 91.5 ± 6.5%; in data set [2] (kidney homogenate, QC 3.0 μg·mL^−1, 4°C for 4–24 h) it was 95.9 ± 4.5%; in data set [2] (kidney homogenate, QC 40.0 μg·mL^−1, 4°C for 4–24 h), 102.1 ± 5.7%. In addition, the “Remaining, Long-term stability” value in data set [2] (kidney homogenate, QC 0.4 μg·mL^−1, 8 weeks at −70°C) is given as 90.8 ± 6.1%; in data set [2] (kidney homogenate, QC 3.0 μg·mL^−1, 8 weeks at −70°C), 91.6 ± 11.2%; in data set [2] (kidney homogenate, QC 40.0 μg·mL^−1, 8 weeks at −70°C) it was 95.7 ± 4.6%. For the same compound, the “Remaining, Freeze-thaw stability” value is recorded as 90.5 ± 7.8% in data set [2] (kidney homogenate, QC 0.4 μg·mL^−1, three freeze-thaw cycles); 94.7 ± 3.7% in data set [2] (kidney homogenate, QC 3.0 μg·mL^−1, three freeze-thaw cycles); 91.2 ± 10.6% in data set [2] (kidney homogenate, QC 40.0 μg·mL^−1, three freeze-thaw cycles). Moreover, the efflux ratio at 120 min, 500 μM is 1 to 1.1 in data set [1] (setting [3]) and 1.05 in data set [1] (setting [4]). Further, the Papp A→B at 120 min, 500 μM in data set [1] (setting [5]) amounted to 0.348 ± 0.042 ×10⁻⁶ cm/s. Besides, the Papp B→A at 120 min, 500 μM in data set [1] (setting [5]) was 0.364 ± 0.029 ×10⁻⁶ cm/s.

Take `CC(C)=CCC[C@](C)(O[C@@H]1O[C@H](CO)[C@@H](O)[C@H](O)[C@H]1O)[C@H]1CC[C@]2(C)[C@@H]1[C@H](O)C[C@@H]1[C@@]3(C)CC[C@H](O)C(C)(C)[C@@H]3[C@@H](O[C@@H]3O[C@H](CO)[C@@H](O)[C@H](O)[C@H]3O[C@@H]3OC[C@@H](O)[C@H](O)[C@H]3O)C[C@]12C` [NGR1, notoginsenoside R1]: the “Remaining, Short-term stability” value worked out at 92.3 ± 9.4% in data set [2] (brain homogenate, QC 0.5 μg·mL^−1, 4°C for 4–24 h); 98.4 ± 4.4% in data set [2] (brain homogenate, QC 5.0 μg·mL^−1, 4°C for 4–24 h); 103.5 ± 9.2% in data set [2] (brain homogenate, QC 50.0 μg·mL^−1, 4°C for 4–24 h); 98.2 ± 6.7% in data set [2] (heart homogenate, QC 0.5 μg·mL^−1, 4°C for 4–24 h); 94.8 ± 9.5% in data set [2] (heart homogenate, QC 5.0 μg·mL^−1, 4°C for 4–24 h); 100.3 ± 7.5% in data set [2] (heart homogenate, QC 50.0 μg·mL^−1, 4°C for 4–24 h). Also, the “Remaining, Short-term stability” value came to 92.4 ± 4.3% in data set [2] (kidney homogenate, QC 0.5 μg·mL^−1, 4°C for 4–24 h); 95.8 ± 5.6% in data set [2] (kidney homogenate, QC 5.0 μg·mL^−1, 4°C for 4–24 h); 90.8 ± 3.7% in data set [2] (kidney homogenate, QC 50.0 μg·mL^−1, 4°C for 4–24 h); 95.1 ± 3.1% in data set [2] (liver homogenate, QC 0.5 μg·mL^−1, 4°C for 4–24 h); 94.3 ± 6.7% in data set [2] (liver homogenate, QC 5.0 μg·mL^−1, 4°C for 4–24 h); 95.4 ± 8.6% in data set [2] (liver homogenate, QC 50.0 μg·mL^−1, 4°C for 4–24 h). For the same compound, the “Remaining, Short-term stability” value is 91.2 ± 5.4% in data set [2] (lung homogenate, QC 0.5 μg·mL^−1, 4°C for 4–24 h); 96.8 ± 8.3% in data set [2] (lung homogenate, QC 5.0 μg·mL^−1, 4°C for 4–24 h); 95.6 ± 5.9% in data set [2] (lung homogenate, QC 50.0 μg·mL^−1, 4°C for 4–24 h); 98.0 ± 6.2% in data set [2] (plasma, QC 0.5 μg·mL^−1, 4°C for 4–24 h); 96.0 ± 8.4% in data set [2] (plasma, QC 5.0 μg·mL^−1, 4°C for 4–24 h); 99.8 ± 3.3% in data set [2] (plasma, QC 35.0 μg·mL^−1, 4°C for 4–24 h). For the same compound, the “Remaining, Long-term stability” value in data set [2] (brain homogenate, QC 0.5 μg·mL^−1, 8 weeks at −70°C) was 101.8 ± 6.8%; in data set [2] (brain homogenate, QC 5.0 μg·mL^−1, 8 weeks at −70°C), 90.0 ± 9.5%; in data set [2] (brain homogenate, QC 50.0 μg·mL^−1, 8 weeks at −70°C) it was 99.0 ± 5.3%; in data set [2] (heart homogenate, QC 0.5 μg·mL^−1, 8 weeks at −70°C) it was 103.6 ± 6.5%; in data set [2] (heart homogenate, QC 5.0 μg·mL^−1, 8 weeks at −70°C), 92.9 ± 4.2%; in data set [2] (heart homogenate, QC 50.0 μg·mL^−1, 8 weeks at −70°C), 96.6 ± 6.7%. The “Remaining, Long-term stability” value in data set [2] (kidney homogenate, QC 0.5 μg·mL^−1, 8 weeks at −70°C) came to 91.1 ± 5.4%; in data set [2] (kidney homogenate, QC 5.0 μg·mL^−1, 8 weeks at −70°C), 94.3 ± 2.8%; in data set [2] (kidney homogenate, QC 50.0 μg·mL^−1, 8 weeks at −70°C), 96.8 ± 9.5%; in data set [2] (liver homogenate, QC 0.5 μg·mL^−1, 8 weeks at −70°C), 92.6 ± 9.1%; in data set [2] (liver homogenate, QC 5.0 μg·mL^−1, 8 weeks at −70°C), 96.6 ± 6.4%; in data set [2] (liver homogenate, QC 50.0 μg·mL^−1, 8 weeks at −70°C), 100.9 ± 5.6%. Further, the “Remaining, Long-term stability” value in data set [2] (lung homogenate, QC 0.5 μg·mL^−1, 8 weeks at −70°C) was found to be 97.6 ± 6.8%; in data set [2] (lung homogenate, QC 5.0 μg·mL^−1, 8 weeks at −70°C) it was 89.8 ± 4.6%; in data set [2] (lung homogenate, QC 50.0 μg·mL^−1, 8 weeks at −70°C), 91.6 ± 9.8%; in data set [2] (plasma, QC 0.5 μg·mL^−1, 8 weeks at −70°C) it was 100.0 ± 8.7%; in data set [2] (plasma, QC 5.0 μg·mL^−1, 8 weeks at −70°C), 94.0 ± 6.8%; in data set [2] (plasma, QC 35.0 μg·mL^−1, 8 weeks at −70°C), 97.0 ± 5.3%. Also, the “Remaining, Freeze-thaw stability” value in data set [2] (brain homogenate, QC 0.5 μg·mL^−1, three freeze-thaw cycles) turned out to be 92.8 ± 6.9%; in data set [2] (brain homogenate, QC 5.0 μg·mL^−1, three freeze-thaw cycles), 92.2 ± 8.5%; in data set [2] (brain homogenate, QC 50.0 μg·mL^−1, three freeze-thaw cycles), 95.2 ± 11.4%; in data set [2] (heart homogenate, QC 0.5 μg·mL^−1, three freeze-thaw cycles) it was 92.8 ± 6.8%; in data set [2] (heart homogenate, QC 5.0 μg·mL^−1, three freeze-thaw cycles) it was 102.5 ± 10.6%; in data set [2] (heart homogenate, QC 50.0 μg·mL^−1, three freeze-thaw cycles), 96.7 ± 8.7%. Moreover, the “Remaining, Freeze-thaw stability” value came to 92.2 ± 7.5% in data set [2] (kidney homogenate, QC 0.5 μg·mL^−1, three freeze-thaw cycles); 95.4 ± 8.9% in data set [2] (kidney homogenate, QC 5.0 μg·mL^−1, three freeze-thaw cycles); 80.9 ± 6.7% in data set [2] (kidney homogenate, QC 50.0 μg·mL^−1, three freeze-thaw cycles); 98.9 ± 7.9% in data set [2] (liver homogenate, QC 0.5 μg·mL^−1, three freeze-thaw cycles); 103.8 ± 8.2% in data set [2] (liver homogenate, QC 5.0 μg·mL^−1, three freeze-thaw cycles); 99.0 ± 5.0% in data set [2] (liver homogenate, QC 50.0 μg·mL^−1, three freeze-thaw cycles). The “Remaining, Freeze-thaw stability” value in data set [2] (lung homogenate, QC 0.5 μg·mL^−1, three freeze-thaw cycles) was 95.8 ± 9.8%; in data set [2] (lung homogenate, QC 5.0 μg·mL^−1, three freeze-thaw cycles), 91.9 ± 9.3%; in data set [2] (lung homogenate, QC 50.0 μg·mL^−1, three freeze-thaw cycles) it was 96.9 ± 7.5%; in data set [2] (plasma, QC 0.5 μg·mL^−1, three freeze-thaw cycles) it was 90.4 ± 5.9%; in data set [2] (plasma, QC 5.0 μg·mL^−1, three freeze-thaw cycles), 92.8 ± 6.4%; in data set [2] (plasma, QC 35.0 μg·mL^−1, three freeze-thaw cycles) it was 96.6 ± 5.5%.

The values above are taken from PMC3626250, “Effects of Borneol on Pharmacokinetics and Tissue Distribution of Notoginsenoside R1 and Ginsenosides Rg1 and Re in Panax notoginseng in Rabbits” (Journal of Analytical Methods in Chemistry, 2013).
